Tested on: cataracts in rats
Assay: Prevention or retardation of cataracts in galactose-fed rats
Type: in vivo, rat
Conditions: 30% galactose diet, A,C,E 0.0025%, B,D 0.01%
Method: The compounds to be tested were:
Test compound/diet mixtures were formulated as follows: […]
Similarly, the 0.01% level was designed to provide a drug concentration of 20 mg per kilogram per day.
All animals were fed the Purina Laboratory Chow and water, ad libitum for a two day acclimatization period. The indicated test compound/diet mixture then was introduced to all animals on Study Day 1 and the animals were maintained on this diet throughout thirty days of the study.
Sufficient amounts of test compound/diet mixture were maintained in the food hoppers to allow the animals to eat ad libitum. All aliquots of test compound/diet mixture added to the food hoopers were weighed and the weights, as well as day of addition, recorded.
Twelve animals were assigned to each treatment with each compound at the indicated percentage by total weight of feed. All eyes were examined with a handheld ophthalmoscope and/or penlight.

O=C1NC(=O)C2(CCOc3ccc(F)cc32)N1 (stereo not shown) [E]
0%: % of Total Eyes, + (vacuole) (Study Day 2) | % of Total Eyes, N (nuclear cataract) (Study Day 2) | % of Total Eyes, S (snowflake) (Study Day 2) | % of Total Eyes, + (vacuole) (Study Day 3) | % of Total Eyes, N (nuclear cataract) (Study Day 3) | % of Total Eyes, S (snowflake) (Study Day 3) | % of Total Eyes, + (vacuole) (Study Day 4) | % of Total Eyes, N (nuclear cataract) (Study Day 4) | % of Total Eyes, S (snowflake) (Study Day 4) | % of Total Eyes, + (vacuole) (Study Day 5) | % of Total Eyes, N (nuclear cataract) (Study Day 5) | % of Total Eyes, S (snowflake) (Study Day 5) | % of Total Eyes, + (vacuole) (Study Day 6) | % of Total Eyes, N (nuclear cataract) (Study Day 6) | % of Total Eyes, S (snowflake) (Study Day 6) | % of Total Eyes, + (vacuole) (Study Day 8) | % of Total Eyes, N (nuclear cataract) (Study Day 8) | % of Total Eyes, S (snowflake) (Study Day 8) | % of Total Eyes, + (vacuole) (Study Day 10) | % of Total Eyes, N (nuclear cataract) (Study Day 10) | % of Total Eyes, S (snowflake) (Study Day 10) | % of Total Eyes, + (vacuole) (Study Day 12) | % of Total Eyes, N (nuclear cataract) (Study Day 12) | % of Total Eyes, S (snowflake) (Study Day 12) | % of Total Eyes, + (vacuole) (Study Day 14) | % of Total Eyes, N (nuclear cataract) (Study Day 14) | % of Total Eyes, S (snowflake) (Study Day 14)
24 eyes: Number of Eyes Observed, - (Normal) (Study Day 2) | Number of Eyes Observed, - (Normal) (Study Day 3) | Number of Eyes Observed, - (Normal) (Study Day 4) | Number of Eyes Observed, - (Normal) (Study Day 5) | Number of Eyes Observed, - (Normal) (Study Day 6) | Number of Eyes Observed, - (Normal) (Study Day 8) | Number of Eyes Observed, - (Normal) (Study Day 10)
0 eyes: Number of Eyes Observed, + (vacuole) (Study Day 2) | Number of Eyes Observed, N (nuclear cataract) (Study Day 2) | Number of Eyes Observed, S (snowflake) (Study Day 2) | Number of Eyes Observed, ± (Study Day 2) | Number of Eyes Observed, + (vacuole) (Study Day 3) | Number of Eyes Observed, N (nuclear cataract) (Study Day 3) | Number of Eyes Observed, S (snowflake) (Study Day 3) | Number of Eyes Observed, ± (Study Day 3) | Number of Eyes Observed, + (vacuole) (Study Day 4) | Number of Eyes Observed, N (nuclear cataract) (Study Day 4) | Number of Eyes Observed, S (snowflake) (Study Day 4) | Number of Eyes Observed, ± (Study Day 4) | Number of Eyes Observed, + (vacuole) (Study Day 5) | Number of Eyes Observed, N (nuclear cataract) (Study Day 5) | Number of Eyes Observed, S (snowflake) (Study Day 5) | Number of Eyes Observed, ± (Study Day 5) | Number of Eyes Observed, + (vacuole) (Study Day 6) | Number of Eyes Observed, N (nuclear cataract) (Study Day 6) | Number of Eyes Observed, S (snowflake) (Study Day 6) | Number of Eyes Observed, ± (Study Day 6) | Number of Eyes Observed, + (vacuole) (Study Day 8) | Number of Eyes Observed, N (nuclear cataract) (Study Day 8) | Number of Eyes Observed, S (snowflake) (Study Day 8) | Number of Eyes Observed, ± (Study Day 8) | Number of Eyes Observed, + (vacuole) (Study Day 10) | Number of Eyes Observed, N (nuclear cataract) (Study Day 10) | Number of Eyes Observed, S (snowflake) (Study Day 10) | Number of Eyes Observed, ± (Study Day 10) | Number of Eyes Observed, + (vacuole) (Study Day 12) | Number of Eyes Observed, N (nuclear cataract) (Study Day 12) | Number of Eyes Observed, S (snowflake) (Study Day 12)
87.5%: % of Total Eyes, - (Normal) (Study Day 14)
1 eyes: Number of Eyes Observed, ± (Study Day 12)
95.8%: % of Total Eyes, - (Normal) (Study Day 12)
100.0%: % of Total Eyes, - (Normal) (Study Day 2) | % of Total Eyes, - (Normal) (Study Day 3) | % of Total Eyes, - (Normal) (Study Day 4) | % of Total Eyes, - (Normal) (Study Day 5) | % of Total Eyes, - (Normal) (Study Day 6) | % of Total Eyes, - (Normal) (Study Day 8) | % of Total Eyes, - (Normal) (Study Day 10)
23 eyes: Number of Eyes Observed, - (Normal) (Study Day 12)
